Earlier results in paper PMC4424193 (European journal of drug metabolism and pharmacokinetics, 2014).
Like-named read-outs stand apart in the source and are kept apart here.

Experiments:
FAK = conditions: binding studies; ref Kurenova et al. 2013
[1] = rats, single intragastric 50 mg/kg in 2% starch suspension; ref Kaverina (1983)
[2] = ref Dirikolu (2009); for Cmax: horse serum
[3] = man, single oral 50 mg dose, 24 hr urine collections; ref Chung (1994)
[4] = humans, ref Yeh et al. 1986; for Cmax: at 0.5 hrs post-dose
[5] = rat, after 24 hrs; ref Yeh 1990
[6] = CD1 mice, 44.6 mg/kg IP C4 free base, ref Thudium 2011

## CN(C)CCN(Cc1ccc(Cl)cc1)c1ccccn1 [C4, N-[(4-chlorophenyl)-methyl]-N-[2-(dimethylamino)-ethyl]-pyridin-2-amine]
FAK
  C4 to FAK dissociation constant (Kd): 0.165 µg/mL
[6]
  plasma Cmax (mean): 820 ng/mL
  time of peak plasma concentration: 0.67 h
mice, 44.6 mg/kg free base IV dose, ref Thudium (2011)
  T½: 0.83 ± 0.34 h
mice, 44.6 mg/kg free base, ref Thudium (2011)
  24 hr concentration: 0 µg/mL
mice, oral vs IP routes of administration, previously determined
  Bioavailability: 15.5%
Mouse IV, ref Thudium (2011)
  Cmax: 820 ng/mL
[1]
  Cmax: 370 ng/mL
  T½: 14.9 h
  serum concentration at 24 hrs (mean): 160 ± 10 ng/mL

## COc1ccc(CN(CCN(C)C)c2ccccn2)cc1 [Pyrilamine, pyrilamine]
[2]; IV 300 mg/horse, at 5 minutes
  Cmax: 280 ng/mL
[2]; oral 300 mg/horse
  Cmax: 36.6 ng/mL
[2]; horse, IV 300 mg/horse
  half-life (t½): 1.67 h
[2]; horse, either route of administration (IV, oral)
  detection in serum at 24 hrs: not detected
[2]; horse, oral 300 mg/horse
  Tmax: 0.44 h
[3]
  parent compound in urine: no parent compound was observed in the urine

## CN(C)CCN(Cc1ccccc1)c1ccccn1 [tripelennamine]
[4]; 50 mg intramuscular
  Cmax: 105 ng/mL
  t½: 2.9 ± 0.25 h
[4]; 100 mg intramuscular
  Cmax: 194 ng/mL
  t½: 4.4 ± 1.3 h
[5]
  dose recovered unchanged in urine: 2-3%
